Data: the CheMixHub viscosity set

Experiment: xn = mol fraction of the nth substance listed

CC(C)CC(C)O (stereo not drawn) + CCO
298.15 K, 101.33 kPa
Details | viscosity [mPa·s]
x2 = 0.1103 | 3.682
x2 = 0.2012 | 3.495
x2 = 0.3207 | 3.131
x2 = 0.4152 | 2.817
x2 = 0.5152 | 2.487
x2 = 0.6098 | 2.16
x2 = 0.7078 | 1.883
x2 = 0.8008 | 1.6
x2 = 0.8981 | 1.342

CCN(CC)S(C)(=O)=O + CCO
303.15 K, 101.33 kPa
Details | viscosity [mPa·s]
x1 = 0.0656 | 100000
x1 = 0.1402 | 106700
x1 = 0.2228 | 117500
x1 = 0.2849 | 127400
x1 = 0.3659 | 142400
x1 = 0.4606 | 163500
x1 = 0.5135 | 176500
x1 = 0.5968 | 200200
x1 = 0.6622 | 221700
x1 = 0.743 | 253300
x1 = 0.8454 | 302600
x1 = 0.9395 | 359700

CCCCCCCO + CCOC(C)=O
viscosity [mPa·s], 101.33 kPa
Details | x2 = 0.1277 | x2 = 0.2478 | x2 = 0.3609 | x2 = 0.4677 | x2 = 0.5686 | x2 = 0.6673 | x2 = 0.7546 | x2 = 0.8406
298.15 K | 3.587 | 2.423 | 1.721 | 1.284 | 1 | 0.823 | 0.663 | 0.569
303.15 K | 3.13 | 2.144 | 1.543 | 1.184 | 0.914 | 0.752 | 0.627 | 0.529
308.15 K | 2.724 | 1.904 | 1.41 | 1.065 | 0.839 | 0.696 | 0.576 | 0.496

CCOC(=O)C(C)O (stereo not drawn) + CN1CCCC1=O
viscosity [mPa·s], 101 kPa
Details | 293.15 K | 313.15 K
x1 = 0.0999 | – | 1.525
x1 = 0.3001 | 2.585 | 1.765

NS(=O)(=O)O + CN1CCCC1=O
298 K, 101.33 kPa
Details | viscosity [mPa·s]
x1 = 0.02005 | 2.01
x1 = 0.03918 | 2.413
x1 = 0.05851 | 2.977
x1 = 0.07708 | 3.724
x1 = 0.09776 | 4.962

OC1CCCCC1 + CN1CCCC1=O
Details | viscosity [mPa·s]
303.15 K, 101 kPa, x2 = 0.6223 | 16.55

CS(C)=O + CN(C)C=O
Details | viscosity [mPa·s]
298 K, 101.3 kPa, x1 = 0.1668 | 0.924
298 K, 101.3 kPa, x1 = 0.3195 | 1.036
298 K, 101.3 kPa, x1 = 0.5201 | 1.242
298 K, 101.3 kPa, x1 = 0.6689 | 1.474
298 K, 101.3 kPa, x1 = 0.8514 | 1.785
298.15 K, 101 kPa, x1 = 0.1077 | 0.89
298.15 K, 101 kPa, x1 = 0.2134 | 0.99
298.15 K, 101 kPa, x1 = 0.4199 | 1.11
298.15 K, 101 kPa, x1 = 0.5205 | 1.24
298.15 K, 101 kPa, x1 = 0.6195 | 1.37
298.15 K, 101 kPa, x1 = 0.8128 | 1.61
298.15 K, 101 kPa, x1 = 0.9071 | 1.78
303.15 K, 101 kPa, x2 = 0.1 | 1.617
303.15 K, 101 kPa, x2 = 0.2 | 1.466
303.15 K, 101 kPa, x2 = 0.3 | 1.331
303.15 K, 101 kPa, x2 = 0.4001 | 1.228
303.15 K, 101 kPa, x2 = 0.5002 | 1.109
303.15 K, 101 kPa, x2 = 0.6001 | 1.025
303.15 K, 101 kPa, x2 = 0.7001 | 0.952
303.15 K, 101 kPa, x2 = 0.8 | 0.877
303.15 K, 101 kPa, x2 = 0.9 | 0.814
313.15 K, 101 kPa, x2 = 0.1 | 1.365
313.15 K, 101 kPa, x2 = 0.2 | 1.248
313.15 K, 101 kPa, x2 = 0.3 | 1.141
313.15 K, 101 kPa, x2 = 0.4001 | 1.057
313.15 K, 101 kPa, x2 = 0.5002 | 0.969
313.15 K, 101 kPa, x2 = 0.6001 | 0.9
313.15 K, 101 kPa, x2 = 0.7001 | 0.839
313.15 K, 101 kPa, x2 = 0.8 | 0.775
313.15 K, 101 kPa, x2 = 0.9 | 0.724
318 K, 101.3 kPa, x1 = 0.159 | 0.7095
318 K, 101.3 kPa, x1 = 0.3184 | 0.7948
318 K, 101.3 kPa, x1 = 0.521 | 0.9101
318 K, 101.3 kPa, x1 = 0.6667 | 1.032
318 K, 101.3 kPa, x1 = 0.8614 | 1.226
323.15 K, 101 kPa, x2 = 0.1 | 1.17
323.15 K, 101 kPa, x2 = 0.2 | 1.075
323.15 K, 101 kPa, x2 = 0.3 | 0.99
323.15 K, 101 kPa, x2 = 0.4001 | 0.922
323.15 K, 101 kPa, x2 = 0.5002 | 0.85
323.15 K, 101 kPa, x2 = 0.6001 | 0.792
323.15 K, 101 kPa, x2 = 0.7001 | 0.74
323.15 K, 101 kPa, x2 = 0.8 | 0.69
323.15 K, 101 kPa, x2 = 0.9 | 0.647

CC(C)CC(C)O (stereo not drawn) + CO
298.15 K, 101.33 kPa
Details | viscosity [mPa·s]
x2 = 0.1191 | 3.504
x2 = 0.2078 | 3.263
x2 = 0.3157 | 2.847
x2 = 0.4359 | 2.297
x2 = 0.5125 | 1.958
x2 = 0.6519 | 1.459
x2 = 0.7023 | 1.297
x2 = 0.8038 | 1.002
x2 = 0.9042 | 0.7423

CCCCC + CO
Details | viscosity [mPa·s]
293.15 K, 101 kPa, x1 = 0.0471 | 0.5884
293.15 K, 101 kPa, x1 = 0.0999 | 0.5839
293.15 K, 101 kPa, x1 = 0.1602 | 0.5769
293.15 K, 101 kPa, x1 = 0.2288 | 0.5663
293.15 K, 101 kPa, x1 = 0.3074 | 0.5509
293.15 K, 101 kPa, x1 = 0.3999 | 0.5282
293.15 K, 101 kPa, x1 = 0.5084 | 0.4953
293.15 K, 101 kPa, x1 = 0.6397 | 0.4464
293.15 K, 101 kPa, x1 = 0.7999 | 0.3733
298.15 K, 101.33 kPa, x2 = 0.0464 | 0.245
298.15 K, 101.33 kPa, x2 = 0.0696 | 0.249
298.15 K, 101.33 kPa, x2 = 0.1597 | 0.265
298.15 K, 101.33 kPa, x2 = 0.2228 | 0.279
298.15 K, 101.33 kPa, x2 = 0.4412 | 0.327
298.15 K, 101.33 kPa, x2 = 0.6294 | 0.384
298.15 K, 101.33 kPa, x2 = 0.741 | 0.424
298.15 K, 101.33 kPa, x2 = 0.7958 | 0.445
298.15 K, 101.33 kPa, x2 = 0.9419 | 0.518
298.15 K, 101.33 kPa, x2 = 0.9734 | 0.537
303.15 K, 101 kPa, x1 = 0.0471 | 0.5267
303.15 K, 101 kPa, x1 = 0.0999 | 0.5186
303.15 K, 101 kPa, x1 = 0.1602 | 0.5081
303.15 K, 101 kPa, x1 = 0.2288 | 0.4945
303.15 K, 101 kPa, x1 = 0.3074 | 0.4767
303.15 K, 101 kPa, x1 = 0.3999 | 0.4529
303.15 K, 101 kPa, x1 = 0.5084 | 0.421
303.15 K, 101 kPa, x1 = 0.6397 | 0.3765
303.15 K, 101 kPa, x1 = 0.7999 | 0.3135
313.15 K, 101 kPa, x1 = 0.0471 | 0.5012
313.15 K, 101 kPa, x1 = 0.0999 | 0.4866
313.15 K, 101 kPa, x1 = 0.1602 | 0.4694
313.15 K, 101 kPa, x1 = 0.2288 | 0.4492
313.15 K, 101 kPa, x1 = 0.3074 | 0.4254
313.15 K, 101 kPa, x1 = 0.3999 | 0.3963
313.15 K, 101 kPa, x1 = 0.5084 | 0.3607
313.15 K, 101 kPa, x1 = 0.6397 | 0.3156
313.15 K, 101 kPa, x1 = 0.7999 | 0.2574

CCCCCCCO + CO
viscosity [mPa·s], 101 kPa
Details | 298.15 K | 308.15 K | 318.15 K
x2 = 0.05 | 5.378 | 3.995 | 2.975
x2 = 0.1 | 4.999 | 3.737 | 2.809
x2 = 0.15 | 4.634 | 3.487 | 2.647
x2 = 0.2 | 4.284 | 3.246 | 2.488
x2 = 0.25 | 3.949 | 3.013 | 2.332
x2 = 0.3 | 3.627 | 2.788 | 2.179
x2 = 0.35 | 3.319 | 2.571 | 2.028
x2 = 0.4 | 3.025 | 2.362 | 1.88
x2 = 0.45 | 2.744 | 2.161 | 1.735
x2 = 0.5 | 2.475 | 1.967 | 1.592
x2 = 0.55 | 2.22 | 1.78 | 1.453
x2 = 0.6 | 1.978 | 1.602 | 1.317
x2 = 0.65 | 1.75 | 1.431 | 1.184
x2 = 0.7 | 1.534 | 1.267 | 1.056
x2 = 0.75 | 1.333 | 1.113 | 0.9327
x2 = 0.8 | 1.145 | 0.9661 | 0.815
x2 = 0.85 | 0.9716 | 0.8284 | 0.7037
x2 = 0.9 | 0.8131 | 0.6998 | 0.5997
x2 = 0.95 | 0.6699 | 0.5807 | 0.504

CCN(CC)S(C)(=O)=O + CO
303.15 K, 101.33 kPa
Details | viscosity [mPa·s]
x1 = 0.065 | 60400
x1 = 0.1394 | 73000
x1 = 0.2155 | 88400
x1 = 0.2885 | 103400
x1 = 0.3717 | 123400
x1 = 0.4509 | 145100
x1 = 0.5148 | 164500
x1 = 0.5856 | 187800
x1 = 0.6922 | 228900
x1 = 0.7686 | 263600
x1 = 0.8304 | 295600
x1 = 0.9084 | 341400
